Experimental data as given in patent US20200197409A1, “HEPATITIS B VIRUS SURFACE ANTIGEN INHIBITOR” (FUJIAN COSUNTER PHARMACEUTICAL CO., LTD., priority 2017, published 2020).

Key:
[1] = test system: HBV; assay: Anti-HBV activity on the hepatitis B virus mouse model (AAV-HBV); type: in vivo, C57BL/6 mice; conditions: for HBsAg content in the plasma of the mice: PO
Procedure: The AAV vector-mediated HBV infected mouse model is a fast and efficient HBV model. Using the high hepatotropism of the AAV vector, the recombinant adeno-associated type 8 virus carrying 1.3 copies of the HBV genome (rAAV8-1.3HBV) is injected into the tail vein of mice, which can efficiently introduce the carried 1.3 copy HBV genome into hepatocytes. Due to the characteristics of the AAV viral vector, the vector mediated by it can express for a long time. The AAV/HBV model can continuously replicate HBV DNA and express HBsAg and HBeAg in the liver of the mice.
The anti-HBV efficacy of the test compound in vivo was evaluated by determining the content of HBsAg in the serum of the mice after treatment with the test compound on AAV/HBV mouse mode.
C57BL/6 mice, 10% HP-f-CD as vehicle, reference compound TDF (Tenofovir), test compound, recombinant virus rAAVS-1.3HBV, main reagents of the experiment including QIAamp96 DNA kit and TaqMan® Universal PCR Master Mix, Hepatitis B Virus Surface Antigen Detection Kit, instruments including: centrifuge (Beckman Allegra X-15R), tissue grinder (QIAGEN-Tissue lyser II) and spectrophotometer (Thermo-NANODROP 1000).
a) All mice were orally administered on the 28th day after the virus injection, and the day was set as day 0. Submaxillary blood of all mice was collected for serum collection before administration. The mice were administered once a day for four weeks.
b) Submaxillary blood of all mice was collected for serum collection twice a week, the volume of the blood collected each time was approximately 100 μL.
c) On the 28th day, all mice were euthanized and the blood was collected from the heart for serum collection.
The content of HBsAg in the serum of the mice was determined by ELISA. The experimental procedure refers to the specification of HBsAg ELISA kit.
a) The anti-HBV activity of the test compound on AAV/HBV mice model was evaluated by determining the content of HBsAg in the plasma of the mice.

[2] = Microsomal metabolism stability, rat; type: in vitro ADME; conditions: rat liver microsomes 0.5 mg/mL, 1 μM, NADPH, 37° C.
Procedure: The microsomal metabolism stability of the test compound (Embodiment 6) in three species was determined. 1 μM test compound and microsomes (0.5 mg/mL) supplemented with NADPH regeneration system were incubated at 37° C. The positive controls were testosterone (3A4 substrate), propafenone (2D6 substrate) and diclofenac (2C9 substrate), respectively. The positive control and microsomes (0.5 mg/mL) supplemented with NADPH regeneration system were incubated at 37° C. Samples at different time points (0, 5, 10, 20, 30, and 60 minutes) were mixed directly with cold acetonitrile containing an internal standard to terminate the reaction. The compound and microsomes were incubated for 60 minutes without the NADPH regeneration system. One parallel was set at each time point (n=1). The samples were analyzed by LC/MS/MS. The concentration of the compound was indicated by the ratio of the peak area of the analyte to the peak area of the internal standard.

[3] = Plasma protein binding rate, SD rat plasma; type: in vitro ADME; conditions: plasma of SD rat, dialysis 4 hours at 37° C.
Procedure: The protein binding rate of Embodiment 6 in the plasma of human, CD-1 mouse and SD rat was determined, 796 μL of blank plasma was taken from human, CD-1 mice and SD rats, and 4 μL of test compound working solution (400 μM) or warfarin working solution (400 μM) was added to achieve a final concentration of the test compound and the warfarin in plasma samples of 2 μM. The samples were mixed thoroughly. The final concentration of organic phase DMSO was 0.5%, 50 μL of the test compound and warfarin plasma sample were transferred into sample receiving plates (three parallels), and a relative volume of corresponding blank plasma or buffer was immediately added, ensuring that the final volume of each sample well was 100 μL, and the volume ratio of plasma to dialysis buffer was 1:1. 400 μL of stop solution was added to these samples, which was used as a T0 sample for the determination of recovery and stability. […] The protein binding rate and the recovery rate were calculated by the formulas: % Protein unbinding rate (%)=100*Drug concentration through the dialysis membrane/drug concentration not through the dialysate: Protein binding rate (%)=100-% protein unbinding rate: % Recovery=100*(Drug concentration through the dialysis membrane+Drug concentration not through the dialysate)/Total drug concentration before undialysis. Protein binding rate and recovery rate were calculated.

COCCCOc1cc2c(cc1OC)-c1cc(=O)c(C(=O)O)cn1[C@H](C(C)(C)C)CO2 [Embodiment 6]
effect on the content of HBsAg on the AAV/HBV mouse model (in words) ([1]; 3, 10, 30 mg/kg PO once a day for four weeks): significantly reduce
HBsAg content in the plasma of the mice ([1]; day 4, 3 mg/kg): 3.68 IU/mL
HBsAg content in the plasma of the mice ([1]; day 4, 10 mg/kg): 3.56 IU/mL
HBsAg content in the plasma of the mice ([1]; day 4, 30 mg/kg): 3.38 IU/mL
HBsAg content in the plasma of the mice ([1]; day 7, 3 mg/kg): 3.70 IU/mL
HBsAg content in the plasma of the mice ([1]; day 7, 10 mg/kg): 3.69 IU/mL
HBsAg content in the plasma of the mice ([1]; day 7, 30 mg/kg): 3.44 IU/mL
HBsAg content in the plasma of the mice ([1]; day 11, 3 mg/kg): 3.76 IU/mL
HBsAg content in the plasma of the mice ([1]; day 11, 10 mg/kg): 3.92 IU/mL
HBsAg content in the plasma of the mice ([1]; day 11, 30 mg/kg): 3.64 IU/mL
HBsAg content in the plasma of the mice ([1]; day 14, 3 mg/kg): 3.70 IU/mL
HBsAg content in the plasma of the mice ([1]; day 14, 10 mg/kg): 3.61 IU/mL
HBsAg content in the plasma of the mice ([1]; day 14, 30 mg/kg): 3.40 IU/mL
HBsAg content in the plasma of the mice ([1]; day 18, 3 mg/kg): 3.85 IU/mL
HBsAg content in the plasma of the mice ([1]; day 18, 10 mg/kg): 3.90 IU/mL
HBsAg content in the plasma of the mice ([1]; day 18, 30 mg/kg): 3.55 IU/mL
HBsAg content in the plasma of the mice ([1]; day 21, 3 mg/kg): 3.78 IU/mL
HBsAg content in the plasma of the mice ([1]; day 21, 10 mg/kg): 3.75 IU/mL
HBsAg content in the plasma of the mice ([1]; day 21, 30 mg/kg): 3.46 IU/mL
HBsAg content in the plasma of the mice ([1]; day 25, 3 mg/kg): 3.76 IU/mL
HBsAg content in the plasma of the mice ([1]; day 25, 10 mg/kg): 3.83 IU/mL
HBsAg content in the plasma of the mice ([1]; day 25, 30 mg/kg): 3.37 IU/mL
HBsAg content in the plasma of the mice ([1]; day 28, 3 mg/kg): 3.96 IU/mL
HBsAg content in the plasma of the mice ([1]; day 28, 10 mg/kg): 3.87 IU/mL
HBsAg content in the plasma of the mice ([1]; day 28, 30 mg/kg): 3.53 IU/mL
HBsAg content in the plasma of the mice ([1]; day −1, 3 mg/kg): 4.54 IU/mL
HBsAg content in the plasma of the mice ([1]; day −1, 10 mg/kg): 4.51 IU/mL
HBsAg content in the plasma of the mice ([1]; day −1, 30 mg/kg): 4.48 IU/mL
tolerance of the mice during the course of treatment ([1]; once a day for four weeks): good tolerance
changes of the body weight of the mice ([1]; once a day for four weeks, FIG. 3): better than RG7834
remaining ratio at T=60 min [2]: 113.0%
fraction unbound at 4 h, 2 μM [3]: 0.406
